Here are results for 69 compounds from PubChem BioAssay AID1361 (SRMLSC, 2008).

Active and inactive are the calls of the source. How the calls were made is not given here.

The experiment in a line: blockers of mitochondrial fusion, WT vs mutant – cell-based, chemical genetic, wild-type and mutant, confirmation (AID 1361). The following applies: Cell-based mitochondrial fusion phenotype, imaging.
The mark [1] stands for this setting: mutant cells, measured here: mutant cell line IC50.

Take `Cc1ccccc1CN(C)CC(=O)Nc1ccccc1-c1ccccc1`: the half-inhibitory concentration (IC50) runs as follows: (WT cells) 16.3 µM; under setting [1], > 25 µM.
For `O=C(CNCc1ccccc1Cl)Nc1ccccc1N1CCCCC1`, in that order: 13.2 µM and > 25 µM.
On to `Nc1c(C(=O)NC2CCCC2)sc2nc(-c3cccs3)ccc12`, for which the IC50 runs as follows: (WT cells) > 25 µM (inactive); under setting [1], > 25 µM.
On the same counts, the results for `COc1ccc(C2N(c3ccc(Cl)cc3)N=C(C(C)=O)N(C)N2C(C)=O)cc1` (stereo not drawn) are 15.8 µM and > 25 µM.
For `Cc1cc(NC(=O)C2CCCCC2)nc2c1c(=O)oc1ccccc12`, in that order: 19.4 µM and 23.8 µM.
On the same counts, the results for `COc1ccc(-n2cc(-c3ccccc3)c3c(N4CC(C)OC(C)C4)ncnc32)cc1` (stereo not drawn) are 21.5 µM and > 25 µM.
For `Cc1ccc(C(=O)Nc2cc(Cl)ccc2N2CCCCC2)s1`, the half-inhibitory concentration (IC50) reads like this: (WT cells) 7.64 µM; under setting [1], > 25 µM.
As to `CSc1nc2ccc(NS(=O)(=O)c3c(Cl)cccc3Cl)cc2s1`, the IC50 is 19.3 µM (WT cells) and > 25 µM under setting [1].
On the same counts, the results for `COc1ccc(C(C)(C)C)cc1NC(=O)Nc1ccc2c(c1)OCO2` are 9.81 µM and 23.3 µM.
For `O=C(NCc1nnc(SCc2ccc(C(F)(F)F)cc2)n1-c1ccccc1)C12CC3CC(CC(C3)C1)C2`, the IC50 by setting is: (WT cells) 18 µM; under setting [1], > 25 µM.
For `COCCN(C(=S)Nc1cccc(C)c1)C(C)c1cccs1` (stereo not drawn), in that order: 23.7 µM and > 25 µM.
Turning to `COc1ccc(NC(=S)Nc2ccc(OCc3ccccc3)cc2)c(OC)c1`, the concentration for half-maximal inhibition (IC50) runs as follows: (WT cells) 17.4 µM; under setting [1], 24.9 µM.
Take `O=C(N/N=C/c1cccc(F)c1)c1cc(-c2ccco2)nc2ccccc12`: the IC50 is, setting by setting: (WT cells) > 25 µM (inactive); under setting [1], > 25 µM.
For `CC(C)c1ccc(OCC(O)Cn2cnc3ccccc32)cc1` (stereo not drawn), in that order: > 25 µM (inactive) and > 25 µM.
As to `Cc1ccc(-n2c(-c3ccccc3)cc(/C=N/NC(=O)CC#N)c2-c2ccccc2)cc1`, the IC50 is, setting by setting: (WT cells) > 25 µM (inactive); under setting [1], > 25 µM.
Take `Cc1nn(-c2ccccc2)c2sc(C(=O)N(Cc3ccco3)C(C)C(=O)NC(C)(C)C)cc12` (stereo not drawn): the IC50 is, setting by setting: (WT cells) 7.45 µM; under setting [1], 19.6 µM.
On the same counts, the results for `Cc1ccc(C2=CC(C)(c3ccc(C)cc3)Nc3nc(C(F)(F)F)nn32)cc1` (stereo not drawn) are 7.63 µM and > 25 µM.
On the same counts, the results for `CCn1ccnc1CN1CCc2c([nH]c3ccccc23)C1C1CCCCC1` (stereo not drawn) are 17.6 µM and > 25 µM.
For `CCCC12CN3CCN(CC(C3)/C1=N\NC(=O)c1ccc(C(C)(C)C)cc1)C2`, in that order: 6.28 µM and 20.2 µM.
As to `CCOC(=O)c1c(C)n(-c2ccc(C)cc2)c2ccc(OCC(O)CNCC3CCCO3)cc12` (stereo not drawn), the IC50 is 15 µM (WT cells) and > 25 µM under setting [1].
On the same counts, the results for `COCC(C)NC(=O)c1cc(-c2cccc(OC)c2)on1` (stereo not drawn) are > 25 µM (inactive) and > 25 µM.
On the same counts, the results for `Cc1ccc2c(c1)C1CN(C)CCC1N2C(=O)c1cn(-c2ccccc2)nc1-c1ccccc1` (stereo not drawn) are 23.6 µM and > 25 µM.
For `C/C(=N\NC(=S)NCc1ccccc1)c1ccc2ccccc2c1OC(F)F`, in that order: 7.44 µM and 25 µM.
As for `CN(C)c1ccc(C(CNS(=O)(=O)c2ccc(F)c(F)c2)c2c[nH]c3ccccc23)cc1` (stereo not drawn), the IC50 by setting is: (WT cells) 13.4 µM; under setting [1], > 25 µM.
On the same counts, the results for `O=C(CSCC(=O)N1CCCCC1)Nc1nc(-c2ccccc2)c(-c2ccccc2)s1` are 10.7 µM and > 25 µM.
On the same counts, the results for `Cc1nc2ccccc2nc(C)c1=NOCc1ccc(Cl)cc1Cl` are 24.2 µM and > 25 µM.
For the compound `Cc1ccc(CNCC(O)(c2ccccc2)c2ccc(Cl)cc2)cc1` (stereo not drawn), the IC50 (WT cells) is 18.7 µM and the IC50 under setting [1] turned out to be 24.9 µM.
On the same counts, the results for `Cc1ccc2c(N)c(C#N)sc2n1` are > 25 µM (inactive) and > 25 µM.
As to `N#Cc1ccc(NC(=O)Nc2ccc(Cl)cc2)cc1`, the IC50 by setting is: (WT cells) 9.83 µM; under setting [1], 13.6 µM.
For `O=C(c1ccco1)N1CCN(c2c(-c3ccccc3)c3cc(Cl)ccc3[nH]c2=O)CC1`, in that order: 13.2 µM and > 25 µM.
In the case of `COc1ccc(-c2cc3nc(-c4ccccc4)cc(N4CCC(O)CC4)n3n2)cc1`, the IC50 by setting is: (WT cells) > 25 µM (inactive); under setting [1], > 25 µM.
Consider `COc1ccc(Br)cc1CN(C)CC(=O)Nc1ccccc1Cl`, for which the IC50 by setting is: (WT cells) 19.8 µM; under setting [1], > 25 µM.
On the same counts, the results for `CCOC(=O)C1CCN(CC(=O)Nc2cc(C)nn2-c2nc3ccccc3s2)CC1` are > 25 µM (inactive) and > 25 µM.
On the same counts, the results for `Cc1ccc(OCCSc2nc(NC(C)C)nc(NC(C)C)n2)cc1` are 12.3 µM and > 25 µM.
For `c1ccc2c(c1)nc(CN1CCOCC1)n1c3ccccc3nc21`, in that order: > 25 µM (inactive) and > 25 µM.
As to `O=C(CSc1ccccc1)NCc1cccnc1`, the IC50 (WT cells) is > 25 µM (inactive) and the concentration for half-maximal inhibition (IC50) under setting [1] was > 25 µM.
With `COc1cccc(C2Nc3c(F)cc(Br)cc3C3C=CCC32)c1OC` (stereo not drawn), the IC50 is 14.9 µM (WT cells) and > 25 µM under setting [1].
On the same counts, the results for `CCOC(=O)C1=NN(c2ccccc2)C2(S1)SC(C(C)=O)=C(C)N2c1ccccc1` (stereo not drawn) are 7.84 µM and > 25 µM.
On the same counts, the results for `Cc1ccc2nc(-c3ccccc3)c(CN3CCN(c4ccccc4F)CC3)n2c1` are 15.6 µM and > 25 µM.
As for `COC(=O)Cn1ccc(N(C)C)c(C#N)c1=O`, the IC50 was > 25 µM (inactive) (WT cells) and > 25 µM under setting [1].
For `COC(=O)Cc1ccc(N(Cc2ccccc2F)S(=O)(=O)c2ccc(C)cc2)cc1`, in that order: 3.34 µM and > 25 µM.
With `COc1ccc(CCNS(=O)(=O)c2ccc(OC)cc2)cc1`, the IC50 was > 25 µM (inactive) (WT cells) and > 25 µM under setting [1].
For `Cc1oc(-c2ccccc2)nc1CN1C(=O)CN=C(c2ccccc2)c2ccccc21`, in that order: > 25 µM (inactive) and > 25 µM.
For `O=C(O)C1CCCCC1C(=O)Nc1ccc(F)cc1F` (stereo not drawn), in that order: > 25 µM (inactive) and > 25 µM.
On the same counts, the results for `Cc1ccc(Nc2ccc(C(=O)O)cc2N)cc1` are > 25 µM (inactive) and > 25 µM.
As for `CC1CCN(c2nc(Cl)nc(Nc3ccc([N+](=O)[O-])cc3)n2)CC1`, the IC50 is 7.41 µM (WT cells) and > 25 µM under setting [1].
Consider `O=C1c2ccccc2C(=O)N1CCN1CCCCC1`, for which the IC50 is > 25 µM (inactive) (WT cells) and > 25 µM under setting [1].
On the same counts, the results for `CN1/C(=C\C(=O)Nc2cccc(Cl)c2)C(C)(C)c2ccccc21` are 9.74 µM and 24.7 µM.
On the same counts, the results for `C=CCn1c(SCC(=O)Nc2cccc(C(=O)OC)c2)nnc1C(C)NC(=O)c1cccs1` (stereo not drawn) are > 25 µM (inactive) and > 25 µM.
For `COc1ccc(NS(=O)(=O)c2cc(C(=O)O)ccc2C)cc1`, in that order: > 25 µM (inactive) and > 25 µM.
Consider `CC(C)=CCc1c2c(c3occ(-c4ccc(O)cc4)c(=O)c3c1O)C=CC(C)(C)O2`, for which the IC50 was 24.7 µM (WT cells) and > 25 µM under setting [1].
In the case of `COc1ccccc1N(CC(O)COc1c(C)cc(C)cc1C)S(=O)(=O)c1ccccc1` (stereo not drawn), the IC50 was 16.1 µM (WT cells) and > 25 µM under setting [1].
On the same counts, the results for `O=C(CCn1nnc2ccccc21)Nc1nnc(Cc2ccccc2)s1` are > 25 µM (inactive) and > 25 µM.
For `CC1CN(c2ncnc3c2c(-c2ccccc2)cn3-c2ccc(F)cc2)CC(C)O1` (stereo not drawn), in that order: 21.4 µM and > 25 µM.
On the same counts, the results for `NC(=O)c1ccc(NC(=O)COC(=O)c2c3c(nc4ccccc24)/C(=C\c2ccc4c(c2)OCO4)CCC3)cc1` are 8.77 µM and > 25 µM.
As to `COc1ccc(C2=NN(C(=O)c3cccs3)C(c3ccccc3O)C2)cc1` (stereo not drawn), the IC50 was 13.8 µM (WT cells) and 24.9 µM under setting [1].
On to `O=C(c1ccc(Cl)c(Cl)c1)c1cnc(Nc2ccccc2)s1`, for which the IC50 reads like this: (WT cells) > 25 µM (inactive); under setting [1], > 25 µM.
For `CCOP(=O)(OCC)C(Nc1cccc(C(F)(F)F)c1)c1ccc(Br)cc1` (stereo not drawn), in that order: 16.3 µM and > 25 µM.
For `C=C(C)C1CC=C(C)/C(=N\NC(=S)Nc2ccc(C)cc2)C1` (stereo not drawn), in that order: > 25 µM (inactive) and > 25 µM.
For `Cc1cc(NC(=S)N(Cc2ccc(Cl)cc2)Cc2ccc(C(=O)O)cc2)ccc1Cl`, in that order: 17.6 µM and > 25 µM.
As to `COc1ccc(/C=C/C(=O)N2CCN(c3ccccn3)CC2)c2ccccc12`, the IC50 reads like this: (WT cells) 19.9 µM; under setting [1], > 25 µM.
As for `COCCN(C(=S)Nc1c(C)cc(C)cc1C)C(C)c1cccs1` (stereo not drawn), the IC50 runs as follows: (WT cells) 23.3 µM; under setting [1], > 25 µM.
On the same counts, the results for `COc1cc(OC)cc(C(=O)N2CCC(n3c(C)nc4cc(F)ccc43)CC2)c1` are > 25 µM (inactive) and > 25 µM.
Turning to `COC(=O)C1CN(C#N)N(c2ccc(Cl)cc2)C12c1ccccc1-c1ccccc12` (stereo not drawn), the IC50 reads like this: (WT cells) 2.48 µM; under setting [1], > 25 µM.
For `COc1ccc(NC(=O)c2oc3ccccc3c2NC(=O)COc2ccccc2OC)c(OC)c1`, in that order: > 25 µM (inactive) and > 25 µM.
On the same counts, the results for `FC(F)(F)c1cc(-c2ccco2)nc(NCc2ccc(Cl)cc2)n1` are 14.8 µM and > 25 µM.
Take `CCCCOP(=O)(c1ccc(N(C)C)cc1)C(Nc1ccccc1)c1ccccc1` (stereo not drawn): the IC50 runs as follows: (WT cells) 14.1 µM; under setting [1], > 25 µM.
On the same counts, the results for `Cc1cc(Br)ccc1NC(=O)CN1C(=O)C2C3CC(c4ccccc4)C(C3)C2C1=O` (stereo not drawn) are 20.4 µM and > 25 µM.
For `Cc1oc(-c2ccccc2)nc1CN1C(=O)C(C)N=C(c2ccccc2F)c2cc(Cl)ccc21` (stereo not drawn), in that order: 12.4 µM and > 25 µM.
